Columns and labels:
[1] = xn = mol fraction of the nth substance listed; conditions: 101 kPa, Liquid
[2] = 101 kPa, Liquid

CC(=O)OC(C)(C)C [1,1-dimethylethyl ethanoate] + CO
[1]
Conditions	mass density, 298.15 K [kg/m3]	mass density, 303.15 K [kg/m3]	mass density, 308.15 K [kg/m3]	mass density, 313.15 K [kg/m3]	speed of sound, 298.15 K [m/s]	speed of sound, 303.15 K [m/s]	speed of sound, 308.15 K [m/s]	speed of sound, 313.15 K [m/s]
x1 = 0.1004	806.42	801.36	796.06	791.34	1107	1090	1069	1055
x1 = 0.1997	819.95	814.66	809.27	804.29	1105	1089	1065	1052
x1 = 0.2996	829.79	824.37	818.91	813.75	1105	1089	1063	1051
x1 = 0.3916	836.73	831.21	825.7	820.41	1104	1088	1061	1049
x1 = 0.5003	843.12	837.52	831.98	826.57	1103	1087	1059	1048
x1 = 0.5988	847.72	842.05	836.48	831	1102	1086	1057	1046
x1 = 0.6994	851.57	845.85	840.26	834.72	1100	1085	1055	1045
x1 = 0.7985	854.72	848.96	843.36	837.77	1097	1083	1053	1043
x1 = 0.8992	857.43	851.65	846.04	840.4	1094	1080	1051	1041
x1 = 1	859.75	853.94	848.34	842.67	1091	1078	1049	1040

CO [methanol] + CC(=O)OC(C)(C)C
[1], x2 = 0
Conditions	mass density [kg/m3]	speed of sound [m/s]
298.15 K	786.38	1109
303.15 K	781.65	1092
308.15 K	776.52	1074
313.15 K	772.15	1060

CC(=O)OC(C)(C)C [1,1-dimethylethyl ethanoate]
[2]
Conditions	mass density [kg/m3]	speed of sound [m/s]
298.15 K	859.75	1091
303.15 K	853.94	1078
308.15 K	848.34	1049
313.15 K	842.67	1040
